Assay results reported in US11028051B2, “Tetrahydroquinoline-based bromodomain inhibitors” (St. Jude Children's Research Hospital, priority 2016, dated 2021).
Read-outs that look alike come from different tables or passages of the source.

Legend:
[1] = tested on: c-Myc expression in HDMB03 cells; assay: c-Myc expression inhibition, high content microscopy (HCM); assay type: cell-based, human; conditions: Homo sapiens, read-out: EC50 (μM) Myc-inhibition
[2] = molecular target: BRD2-BD1 (Homo sapiens (Human), UniProt P25440); assay: surface plasmon resonance analysis of binding; conditions: SPR, BRD2(1) (printed MRD2(1))
BRD2-BD1, sequence (P25440 74-180): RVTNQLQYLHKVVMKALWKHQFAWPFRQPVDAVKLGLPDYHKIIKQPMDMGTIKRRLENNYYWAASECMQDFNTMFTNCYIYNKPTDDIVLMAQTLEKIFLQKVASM
Experimental: (§1) a. Surface Plasmon Resonance (Biacore) Analysis of Binding to Brd2-BD1 and Brd2-BD2
(§2) SPR experiments were conducted at 15° C. using a SensiQ Pioneer optical biosensor (SensiQ Technologies). Poly-His tagged BRD2 constructs were immobilized on polycarboxylate-coated gold chips preimmobilized with nitrilotriacetic acid (His-Cap chips; SensiQ Technologies) by capture-coupling, a hybrid method of capture and amine coupling chemistry (Ref. A). The His-Cap chip was preconditioned and charged with Ni^2+ in equilibration buffer (10 mM HEPES pH 7.4, 150 mM NaCl, 50 μM EDTA, 0.005% Tween20) at a flow rate of 10 μL/min. The chip was washed with three 60 s injections of regeneration buffer (10 mM HEPES pH 8.3, 150 mM NaCl, 350 mM EDTA, 0.05% Tween20) and one 60 s injection of equilibration buffer and was charged with a 60 s injection of 500 mM NiCl2 in equilibration buffer, which added ˜55 RU of Ni^2+ per channel. […]
(§3) A series of buffer-only (blank) injections was included throughout the experiment to account for instrumental noise. The data were processed, double-referenced, solvent corrected and analyzed using the software package Qdat (version 2.5.3.5, SensiQ Technologies) (Ref B). The kinetic rate constants were determined by globally fitting the data to a 1:1 interaction model. Equilibrium dissociation constants (KD) were calculated as the quotient kd/ka.

[3] = molecular target: BRD2-BD2 (Homo sapiens (Human), UniProt P25440); assay: surface plasmon resonance analysis of binding; conditions: SPR, BRD2(2)
BRD2-BD2, sequence (P25440 344-453): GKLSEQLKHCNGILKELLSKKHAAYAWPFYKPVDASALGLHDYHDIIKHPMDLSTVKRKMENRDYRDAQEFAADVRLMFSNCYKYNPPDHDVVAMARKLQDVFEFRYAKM
Experimental: as §1, §2, §3

[4] = molecular target: BRD2(1) (Homo sapiens (Human), UniProt P25440); assay: BROMOscan KD determination; assay type: binding; conditions: Table 10
BRD2(1), sequence (P25440 74-180): as the sequence (P25440 74-180) above
Procedure, shortened: (§4)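 First, each compound is screened at 1 μM in a BROMOscan competitive binding experiment covering about 42 bromodomains, compared with a control. Then, KD is determined for selected bromodomains in a follow-up BROMOscan run.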

[5] = molecular target: BRDT(1) (Homo sapiens (Human), UniProt Q58F21); assay: BROMOscan KD determination; assay type: binding; conditions: Table 10
Procedure, shortened: as §4

[6] = molecular target: BRDT(2) (Homo sapiens (Human), UniProt Q58F21); assay: BROMOscan KD determination; assay type: binding
Procedure, shortened: as §4

[7] = molecular target: BRD2(2) (Homo sapiens (Human), UniProt P25440); assay: BROMOscan KD determination; assay type: binding
BRD2(2), sequence (P25440 344-453): as the sequence (P25440 344-453) above
Procedure, shortened: as §4

EC50 ([1]; HD-MB03, Table 5): 0.03 µM
EC50 ([1]; HD-MB03, Table 7): 1.3 µM
EC50 ([1]; HD-MB03, Table 9, c-Myc expression inhibition in HDMB03 cells): 1.3 µM
Kd [2]: 132 nM
Kd [3]: 13 nM
Kd [4]: 24 nM
Kd [5]: 4.9 nM
T(1)/T(2) ([6]; BROMOscan KD ratio): 1.0
Kd ([6]; BROMOscan, Table 10): 4.9 nM
[2(1)/2(2)] ([7]; BROMOscan KD ratio): 36.9
Kd ([7]; BROMOscan, Table 10): 0.65 nM
Structure (SMILES): COC(=O)c1ccc(N[C@@H]2C[C@H](C)N(C(C)=O)c3ccc(-c4cccc(NC(C)=O)c4)cc32)cc1 [compound 4]
